Assay results from patent US8415334B2, “Method of combating infection” (Morvus Technology Ltd., priority 2005, dated 2013).
Values joined by “and” are separate entries in the source; they are usually repeats but may differ in a detail not shown here. Identical values can stand only once. Like-named read-outs stand apart in the source and are kept apart here. Values belong to the molecule of their own block, whether it stands above or below them.

Columns and labels:
L. donovani HU3 = assay: In vivo activity against L. donovani HU3 in mice (liver parasite load, LDU); set-up: species or system Leishmania donovani; details: for ED50: Leishmania donovani
Experimental: (§1) The infection and treatment of the animals was performed as described by Croft and Yardley and references there in (Croft & Yardley (1999) Animal models of visceral leishmaniasis. In Handbook of Animal Models of Infection, Zak, O. (ed) pp 783-787, Academic Press, London). […] The liver was removed from freshly sacrificed animals and weighed. Smears were then prepared from the livers on microscope slides and fixed with methanol and stained with Giemsa stain. The number of parasites per 500 liver cells was determined microscopically for each experimental animal. This figure is multiplied by total liver weight (mg) and this figure (the Leishman-Donovan unit (LDU)) is used as the basis for calculating the difference in parasite load between treated and untreated animals (Croft & Yardley, 1999 supra).
(§2) Stibogluconate at its MTD (15 mg/kg×5 SC) was used as the control compound for these experiments.

T. colubriformis = assay: Integrated in vitro screening, T. colubriformis; type: cell-based; details: for IC50: Trichostrongylus colubriformis, read-out: T. colubriformis, IC50
P. falciparum (Ghana) = assay: Integrated in vitro screening, P. falciparum (Ghana); type: cell-based; details: Plasmodium falciparum; for IC50: read-out: P. falciparum (Ghana), IC50
T. cruzi (tulahuen CL2) = assay: microbe, parasite or virus in culture; details: Trypanosoma cruzi, L6, read-out: T. cruzi (tulahuen CL2) IC50
Experimental: The Trypanosoma cruzi (MHOM/CL/00/Tulahuen) transfected with β-galactosidase (Lac Z) gene, was used (Buckner et al (1996) Antimicrobial Agents and Chemotherapy 40(11), 2592-2597. The strain was maintained on an L-6 (rat skeletal myoblast cell line obtained from European Collection of Animal Cell Cultures (ECACC, Salisbury, UK)) cell-layer in RPMI 1640 w/o phenol red medium supplemented with 10% heat inactivated fetal calf serum. All cultures and assays were conducted at 37° C. under an atmosphere of 5% CO2 in air.
For the assays, the compound was further diluted to the appropriate concentration using complete medium.
Assays were performed in sterile 96-well microliter plates, each well containing 100 μl medium with 2×10^3 L-6 cells. After 24 hours 50 μl of a trypanosome suspension containing 5×10^3 trypomastigote bloodstream forms from culture was added to the wells. 48 hours later the medium was removed from the wells and replaced by 100 μl fresh medium with or without a serial drug dilution. […] Nifurtimox was used as the reference drug.
The compounds were tested in triplicate at 4 concentrations (30-10-3-1 μg/ml). Nifurtimox was included as the reference drug.
The same protocol was used and the IC50s determined using an extended dose range adjusted as appropriate.

T cruzi [1] = assay: In vivo activity against T. cruzi in BALB/c mice (blood parasites, survival); set-up: species or system Trypanosoma cruzi; details: for # of type of field (blood parasites per fields): individual mice
T. b. brucei = assay: Integrated in vitro screening, T. b. brucei; type: cell-based; details: Trypanosoma brucei, read-out: T. b. brucei, IC50
T cruzi [2] = assay: In vivo activity against T. cruzi in BALB/c mice (blood parasites, survival); set-up: species or system Trypanosoma cruzi; details: for # of type of field (blood parasites per fields): 0.3 mg/kg i.p. x5, individual mice
Experimental: At a dose of 0.3 mg/kg (IP×5, daily) all the mice survived for the 50 days before the experiment was terminated.

L. infantum = assay: In vitro screening, Leishmania in mouse peritoneal macrophages; type: cell-based; details: Peritoneal macrophage
Experimental: One strain of Leishmania spp. (Leishmania donovani MHOM/ET/67/L82, also known as LV9,HU3) was used. The strain is maintained in the Syrian Hamster (Mesocricetus auratus). Amastigotes were collected from the spleen of an infected hamster and spleen parasite burden was assessed using the Stauber technique.
Primary peritoneal mouse (CD1) macrophages were collected 1 or 2 days after a macrophage production stimulation with an i.p. injection of 2 ml 2% soluble starch. All cultures and assays were conducted at 37° C. under an atmosphere of 5% CO2.
The stock was pre-diluted to 60 μg/ml in RPMI 1640+10% heat inactivated fetal calf serum. Assays were performed in sterile 16-well tissue culture slides, each well containing 50 μl of the compound dilutions together with 100 μl of macrophage/parasite inoculum (4×10^5 macrophages/ml and 4×10^6 parasites/ml). The inoculum was prepared in RPMI-1640 medium, supplemented with 10% heat inactivated fetal calf serum. […] After 5 days of incubation, parasite growth was microscopically assessed after staining the cells with a 10% Giemsa solution. The level of infection/well was evaluated by counting the number of infected macrophages per 100 macrophages. The results expressed as % reduction in parasite burden compared to control wells, were transferred into a graphic programme (EXCEL), sigmoidal inhibitions curves determined and IC50 values calculated. […]

[3] = Cytotoxicity assays against a range of human cell lines; type: cell-based; details: range of human cell lines (not named)
[4] = mouse, in vivo
Experimental: as §1, §2

SMILES: O.O.O.O.O.O.O.O.O.O=C([O-])[C@@H]1[O][Sb]2([O-])([O][Sb]34([OH])[O][C@H]([C@H](O)CO)[C@H]([O]3)[C@H](C(=O)[O-])[O]4)[O][C@H]([C@H](O)CO)[C@@H]1[O]2.[Na+].[Na+].[Na+] [Stibogluconate, sodium stibogluconate]
effect on parasite counts (L. donovani HU3; SCID mouse model, MTD 15 mg/kg×5 SC): little effect

SMILES: CCCSc1ccc2nc(NC(=O)OC)[nH]c2c1 [Albendazole]
IC50 (T. colubriformis): 0.002 µM

IC50 (P. falciparum (Ghana)): 0.018 µM
SMILES: CCN(CC)CCCC(C)Nc1ccnc2cc(Cl)ccc12 (centres unmarked) [Chloroquine]

SMILES: CC1CS(=O)(=O)CCN1/N=C/c1ccc([N+](=O)[O-])o1 (centres unmarked) [Nifurtimox]
IC50 (T. cruzi (tulahuen CL2)): 0.45 µM

SMILES: O=C(Cn1ccnc1[N+](=O)[O-])NCc1ccccc1 [benznidazole]
parasites in the blood, compared with tretazicar 3.0 mg/kg (T cruzi [1]; 45 mg/kg (p.o.×5 daily)): equivalent effect
# of type of field (blood parasites per fields) (T cruzi [1]; 45 mg/kg p.o. x5, day 6 post infection): 0/20 and 3/20 (2×) and 4/20 and 1/20
# of type of field (blood parasites per fields) (T cruzi [1]; 45 mg/kg p.o. x5, day 13 post infection): 0/10

SMILES: Cc1ccc(C(=O)Nc2ccc(S(=O)(=O)O)c3cc(S(=O)(=O)O)cc(S(=O)(=O)O)c23)cc1NC(=O)c1cccc(NC(=O)Nc2cccc(C(=O)Nc3cc(C(=O)Nc4ccc(S(=O)(=O)O)c5cc(S(=O)(=O)O)cc(S(=O)(=O)O)c45)ccc3C)c2)c1 [Suramin]
IC50 (T. b. brucei): 0.045 µM

SMILES: NC(=O)c1cc(N2CC2)c([N+](=O)[O-])cc1[N+](=O)[O-] [Tretazicar, 5-(aziridin-1-yl)-2,4-dinitrobenzamide]
activity against tested strains (T. colubriformis; T. colubriformis, in words): No activity
IC50 (T. colubriformis; in vitro): > 32 µM
IC50 (T. cruzi (tulahuen CL2)): 0.003 µM
IC50 (T. b. brucei; in vitro): 5 µM
# of type of field (blood parasites per fields) (T cruzi [1]; 1 mg/kg i.p. x5, day 6 post infection): 0/20 (3×) and 1/20 (2×)
# of type of field (blood parasites per fields) (T cruzi [1]; 1 mg/kg i.p. x5, day 13 post infection): 0/10 (2×) and 3/10
parasites in the blood (T cruzi [1]; 3.0 mg/kg (IP×5, daily)): cleared all the parasites from the blood
# of type of field (blood parasites per fields) (T cruzi [1]; 3 mg/kg i.p. x5, day 6 post infection): 5/20 and 12/20 and 4/20 and 1/20 (2×)
# of type of field (blood parasites per fields) (T cruzi [1]; 3 mg/kg i.p. x5, day 13 post infection): 0/10
# of type of field (blood parasites per fields) (T cruzi [1]; 10 mg/kg i.p. x5, day 6 post infection): 0/20 (3×) and 1/20 and 2/20
# of type of field (blood parasites per fields) (T cruzi [1]; 10 mg/kg i.p. x5, day 13 post infection): 0/10
survival of infected mice (T cruzi [2]; 0.3 mg/kg (IP×5, daily), BALB/c mice, experiment terminated at 50 days): ≥ 50 days
parasites in the blood (T cruzi [2]; 0.3 mg/kg (IP×5, daily), at 13 days): parasites could still be detected in the blood
# of type of field (blood parasites per fields) (T cruzi [2]; day 6 post infection): 2/20 and 0/20 (4×)
# of type of field (blood parasites per fields) (T cruzi [2]; day 13 post infection): 16/5 and 2/5 (2×) and 7/5 and 6/5
IC50 (L. infantum): 0.08 µM
IC50 [3]: > 50 µM
ED90 (L. donovani HU3; BALB/c mice, IP × 5 Daily): 1.41 mg/kg
ED90 (L. donovani HU3; BALB/c mice, IV × 3 Daily): 1.15 mg/kg
ED50 (L. donovani HU3; ip, BALB/c mice, IP × 5 Daily): 0.23 mg/kg
ED50 (L. donovani HU3; iv, BALB/c mice, IV × 3 Daily): 0.19 mg/kg
ED50 (L. donovani HU3; iv, SCID mice, IV × 5 Daily): 0.18 mg/kg
ED90 (L. donovani HU3; SCID mice, IV × 5 Daily): 0.35 mg/kg
drug related toxicity, as measured by body weight loss [4]: No drug related toxicity
dose at which significant toxicity was observed ([4]; 5 days): 10 mg/kg×5
activity against tested strains (P. falciparum (Ghana); in words): No activity
IC50 (P. falciparum (Ghana); in vitro): > 32 µM
